Measured values reported in US20130023553A1, “PEGYLATED OPIOIDS WITH LOW POTENTIAL FOR ABUSE AND SIDE EFFECTS” (Nektar Therapeutics, priority 2010, published 2013).
Where two headings read alike, the source gives them in different places.

Tests used:
[1] = test system: CD-1 male mice; test: Phenylquinone writhing analgesic assay; assay type: in vivo; conditions: Mus musculus; mPEGn-O-HydroxyCodone series
Experimental: The assay utilized CD-1 male mice (5-8 mice per group), each mouse being approximately 0.020-0.030 kg on the study day. Mice were treated according to standard protocols. Mice were given a single “pretreatment” dose of a compound lacking covalent attachment of a water-soluble, non-peptidic oligomer (i.e., non-PEG oligomer-modified parent molecule), a corresponding version comprising the compound covalently attached to a water-soluble, non-peptidic oligomer (i.e., the conjugate), or control solution (IV, SC, IP or orally) thirty minutes prior to the administration of the phenylquinone (PQ) solution. Each animal was given an IP injection of an irritant (phenylquinone, PQ) that induces “writhing” which may include: contractions of the abdomen, twisting and turning of the trunk, arching of the back, and the extension of the hindlimbs. Each animal was given an IP injection of PQ (1 mg/kg PQ, 0.1 mL/10 g bodyweight). After the injection, the animals were returned to their observation enclosure and their behavior was observed. Contractions were counted between 35 and 45 minutes after the ‘pretreatment”. The animals were used once. Each tested article was dosed at a range between 0.1 and 100 mg/kg (n=5-10 animals/dose).

[2] = molecular target: T1, human mu opioid receptor (Homo sapiens, UniProt P35372); test: cell-based; conditions: for Emax: read-out: % max effect, mu opioid receptor
T1 construct: expressed in transfected cells; host or cells: CHO cells
T1 sequence (P35372 whole entry): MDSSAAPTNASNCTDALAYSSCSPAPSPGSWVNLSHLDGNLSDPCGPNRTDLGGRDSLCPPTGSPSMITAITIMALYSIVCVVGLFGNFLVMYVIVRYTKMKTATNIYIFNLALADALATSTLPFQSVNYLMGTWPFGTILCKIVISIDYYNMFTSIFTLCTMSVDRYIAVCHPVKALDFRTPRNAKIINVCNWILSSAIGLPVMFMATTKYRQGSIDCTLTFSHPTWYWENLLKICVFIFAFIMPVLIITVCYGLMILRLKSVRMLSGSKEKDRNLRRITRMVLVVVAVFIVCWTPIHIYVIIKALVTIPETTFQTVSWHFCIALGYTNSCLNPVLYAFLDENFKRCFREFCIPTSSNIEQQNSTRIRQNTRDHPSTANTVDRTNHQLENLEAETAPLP
Experimental: Studies were conducted in CHO cells heterologously expressing the cloned human mu, kappa or delta opioid receptors. cAMP was measured using a cAMP HiRange homogenous time-resolved fluorescence assay (HTRF Assay), that is based on a competitive immunoassay principle (Cisbio, Cat.#62AM6PEC).
Briefly, suspensions of cells expressing either the mu, kappa or delta opioid receptors were prepared in buffer containing 0.5 mM isobutyl-methyl xanthine (IBMX). […] EC50 values were calculated for each compound from a sigmoidal dose-response plot of concentrations versus maximum response. To determine if the compounds behaved as full or partial agonists in the system, the maximal response at the highest tested concentrations of compounds were compared to that produced by a known full agonist.

[3] = molecular target: T1, human mu opioid receptor; test: biochemical; assay type: binding
Experimental: Radioligand displacement was measured using scintillation proximity assays (SPA).
Briefly, serial dilutions of the test compounds were placed in a 96-well plate to which were added SPA beads, membrane and radioligand. The assay conditions for each opioid receptor subtype are described in Table 10 below. The plates were incubated for 8 hours-overnight at room temperature, spun at 1000 rpm to pellet the SPA beads, and radioactivity was measured using the TopCount® microplate Scintillation counter. Specific binding at each concentration of test compound was calculated by subtracting the non-specific binding measured in the presence of excess cold ligand. IC50 values were obtained by non-linear regression of specific binding versus concentration curves and Ki values were calculated using Kd values that were experimentally pre-determined for each lot of membrane preparations.

[4] = Pharmacokinetics following oral (PO) dosing; assay type: in vivo, Sprague-Dawley rats; set-up: Cmax: unit: ng/mL; conditions: for bioavailability: po, 5 mg/kg; for AUC(0-inf) / half-life: * n = 2; for half-life: read-out: T1/2(z); for Tmax: median value
Description: (§1) There were 3 rats/group. All animals were food fasted overnight. […] The predose sample was collected from the JVC.
(§2) Following the last collection point, the animals were euthanized.

[5] = test system: squirrel monkeys; test: Monkey self-administration model of addictive potential
Description: Dose-related effects of the test articles were examined, using two or more doses of each drug in 3-4 subjects in a double alternation schedule in which each unit dose (or vehicle) was used in two consecutive sessions before a change in unit dose.
Addictive potential of opioid compounds and opioid conjugates of the invention may be assessed through the use of squirrel monkey models as known in the art.
Under the double alternation schedule, each unit dose (or vehicle) was available for intravenous self-administration for two consecutive sessions before the unit dose was changed. In this way, it was possible to establish the function relating unit dose of intravenous drug to (i) number of injections per session, and/or (ii) the percentage of total responses that occur on the lever leading to self-administration (injection-lever responding, % ILR). Unit doses of drugs ranged from 0.01 to 3.2 mg/kg/injection.

[6] = Pharmacokinetics following intravenous (IV) dosing; assay type: in vivo, Sprague-Dawley rats; set-up: Cmax: unit: ng/mL; conditions: hydroxycodone series, 1 mg/kg IV, Mean ± SD
Description: as §1, §2

[7] = test system: mice; test: Oral dose giving maximal analgesia; assay type: in vivo
[8] = 25 mg/kg intravenously, an hour following injection
Experimental: An hour following injection, the animals were sacrificed and plasma and the brain were collected and frozen immediately. Following tissue and plasma extractions, concentrations of the compounds in brain and plasma were measured using LC-MS/MS. The brain:plasma ratio was calculated as the ratio of measured concentrations in the brain and plasma.

[9] = male, Sprague-Dawley, rat, plasma
[10] = male, Sprague-Dawley, rat, plasma, hydroxycodone series, 5.0 mg/kg oral, Mean ± SD
[11] = male, Sprague-Dawley, rat, plasma, hydroxycodone series, 5.0 mg/kg oral, Mean ± SD, read-out: Cmax
[12] = male, Sprague-Dawley, rat, plasma, hydroxycodone series, 5.0 mg/kg oral, read-out: Tmax (converted)
[13] = hydroxycodone series, 5.0 mg/kg oral, Mean ± SD

Q: With COCCOC1CCC2(O)C3Cc4ccc(OC)c5c4C2(CCN3C)C1O5 (stereo not drawn) [α-6-mPEG1-O-hydroxycodone, α-6-mPEG1-O-oxycodone] as the compound, how does the ED50 [1] read?
A: The ED50 was 6.06 mg/kg.

Q: What about the Emax ([2]; maximal response at the highest tested concentration) of the same compound?
A: The Emax was 102%.

Q: What about the EC50 ([2]; read-out: EC50, mu opioid receptor) of the same compound?
A: Its EC50 is 3840 nM.

Q: What about the Ki ([3]; CHO-K1 membranes, [3H]DAMGO 6 nM, read-out: Ki, Mu opioid receptor) of the same compound?
A: The Ki was 654 nM.

Q: What about the bioavailability [4, 9] of the same compound?
A: The bioavailability was 2.1%.

Q: And the AUC [4, 10]?
A: The AUC was 17.5 ng·h/mL.

Q: What about the MRT last [4, 10] of the same compound?
A: Its MRT last is 66.8 min.

Q: What about the AUC(0-inf) [4, 10] of the same compound?
A: The AUC(0-inf) was 19.2 ng·h/mL.

Q: What about the half-life [4, 10] of the same compound?
A: The half-life was 57.7 min.

Q: What about the Cmax [4, 11] of the same compound?
A: The Cmax was 14.3 ± 6.43 ng/mL.

Q: What about the Tmax [4, 12] of the same compound?
A: The Tmax was 15 min.

Q: Which ED50 [1] does the source give for COc1ccc2c3c1O[C@H]1C(=O)CC[C@@]4(O)[C@@H](C2)N(C)CC[C@]314 [Oxycodone, oxycodone, reference compound] here?
A: Its ED50 is 0.619 mg/kg.

Q: And the “subjects showing addictive behavior” value ([5]; 0.01 mg/kg/injection)?
A: Its value is 25%.

Q: What about the “injection lever responses (% ILR)” value ([5]; 0.03 mg/kg/injection) of the same compound?
A: The value was 100%.

Q: And the “subjects showing addictive behavior” value ([5]; 0.03 mg/kg/injection)?
A: The value was 100%.

Q: What about the “injection lever responses (% ILR)” value ([5]; 0.1 mg/kg/injection) of the same compound?
A: The value was 100%.

Q: And the AUCall [6]?
A: The AUCall was 12800 ± 1090 ng·min/mL.

Q: What about the AUCinf [6] of the same compound?
A: Its AUCinf is 13000 ± 1070 ng·min/mL.

Q: What about the CL [6] of the same compound?
A: The CL was 77.1 ± 6.26 mL/min/kg.

Q: What about the Cmax [6] of the same compound?
A: Its Cmax is 495 ± 56.0 ng/mL.

Q: What about the MRTlast [6] of the same compound?
A: The MRTlast was 37.0 ± 1.28 min.

Q: And the “T1/2(z)” value [6]?
A: Its value is 47.0 ± 3.99 min.

Q: And the “oral dose at which maximal analgesia was obtained” value [7]?
A: Its value is 14 mg/kg.

Q: And the AUCall [4, 13]?
A: The AUCall was 4520 ± 1660 ng·min/mL.

Q: What about the Cmax [4, 13] of the same compound?
A: Its Cmax is 25.5 ± 1.86 ng/mL.

Q: And the MRTlast [4, 13]?
A: The MRTlast was 179 ± 17.4 min.

Q: What about the Tmax ([4]; hydroxycodone series, 5.0 mg/kg oral) of the same compound?
A: The Tmax was 15.0 min.

Q: For COCCOCCOCCO[C@H]1CC[C@@]2(O)[C@H]3Cc4ccc(O)c5c4[C@@]2(CCN3CC2CCC2)[C@H]1O5 [6-O-mPEG3-Nalbuphine], which “Brain:Plasma Ratios” value [8] is on record?
A: Its value is 0.23.

Q: With COCCOCCOCCOCCOC1CCC2(O)C3Cc4ccc(OC)c5c4C2(CCN3C)C1O5 (stereo not drawn) [α-6-mPEG4-O-hydroxycodone, α-6-mPEG4-O-oxycodone] as the compound, how does the ED50 [1] read?
A: Its ED50 is 17.3 mg/kg.

Q: What about the EC50 [2] of the same compound?
A: The EC50 was 3720 nM.

Q: And the Emax [2]?
A: The Emax was 109%.

Q: What about the AUC [6, 9] of the same compound?
A: The AUC was 192 ng·h/mL.

Q: What about the AUC(0-inf) [6, 9] of the same compound?
A: The AUC(0-inf) was 193 ng·h/mL.

Q: And the MRT last [6, 9]?
A: Its MRT last is 35.6 min.

Q: And the clearance [6, 9]?
A: The clearance was 86.5 ± 6.36 mL/min/kg.

Q: What about the Cmax ([6]; male, Sprague-Dawley, rat, plasma, read-out: Cmax) of the same compound?
A: The Cmax was 537 ± 31 ng/mL.

Q: And the half-life ([6]; male, Sprague-Dawley, rat, plasma, read-out: T1/2(z))?
A: The half-life was 43.6 ± 3.27 min.

Q: What about the Vd ([6]; male, Sprague-Dawley, rat, plasma, read-out: Vss) of the same compound?
A: Its Vd is 3.34 ± 0.113 L/kg.

Q: What about the Ki [3] of the same compound?
A: Its Ki is 893 nM.

Q: What about the bioavailability [4, 9] of the same compound?
A: Its bioavailability is 11%.

Q: And the AUC [4, 10]?
A: The AUC was 106 ng·h/mL.

Q: And the MRT last [4, 10]?
A: The MRT last was 96.6 min.

Q: What about the AUC(0-inf) [4, 10] of the same compound?
A: The AUC(0-inf) was 88 ng·h/mL.

Q: And the half-life [4, 10]?
A: The half-life was 70.3 min.

Q: And the Cmax [4, 11]?
A: Its Cmax is 55.8 ± 4.69 ng/mL.

Q: What about the Tmax [4, 12] of the same compound?
A: The Tmax was 15 min.
